Experimental data: publication PMC11189555, “Aryl amino acetamides prevent Plasmodium falciparum ring development via targeting the lipid-transfer protein PfSTART1” (Nature Communications, 2024)
Several values for one entry are separate records, joined by “and”; a condition that tells them apart may be missing. Equal values may be shown once.

Assays:
PfSTART1 = PfSTART1 knock-down by glucosamine (glmS riboswitch), Western blot densitometry; type: cell-based, Plasmodium falciparum; conditions: 2.5 mM GlcN; for START densitometry, Norm 0 mM [EXP2]: one value per biological replicate; for START densitometry, norm 0/EXP2: START band normalised to EXP2, then to 0 mM GlcN of the same line; for START densitometry, norm 0/EXP2 / START densitometry, norm 0/HSP / START densitometry, norm 3D7, EXP2 / START densitometry, norm 3D7, HSP70: 3 biological replicates; for START densitometry, norm 0/HSP: START band normalised to HSP70, then to 0 mM GlcN of the same line; for START densitometry, norm 3D7, EXP2: START/EXP2 relative to 3D7 at 0 mM GlcN (=1.00E+02); for START densitometry, norm 3D7, HSP70: START/HSP70 relative to 3D7 at 0 mM GlcN (=1.00E+02); for PfSTART1 knockdown: 48 h
Method: Parasites were prepared for the stage of interest and proteins were extracted using a saponin-lysis (unless indicated otherwise). For knock-down assays, parasites were exposed to 0 or 2.5 mM GlcN for 48 h (starting from late schizont/early rings): the day before harvesting schizonts, 30 nM ML10 (LifeArc) was also added to the cultures to block egress. Infected red blood cells were lysed 10 min on ice with 0.1% saponin in PBS complemented with 1x Protease Inhibitors Cocktail (Roche; PBS + PI). Parasites were pelleted and washed with PBS + PI to remove haemoglobin. […] Protein samples were centrifuged at 15,000 g, then run on a pre-cast 4-12% NuPAGE Bis-Tris gel (Invitrogen) and proteins were transferred onto a nitrocellulose membrane using iBlot (Invitrogen). Membranes were exposed to the primary antibody overnight at 4 °C, to the secondary antibody 1 h at room temperature, and fluorescence was measured using an Odyssey imaging system, which was also used to measure densitometry. The list of antibodies used, their dilution, and origins are described in Table S3.

Hyp1-Nluc parasites = test: Egress, invasion & recovery assay (Nluc bioluminescence, smears); type: cell-based, Plasmodium falciparum; conditions: W-991 60 nM; for parasite morphology at 72 h after 4 h treatment: M-833 2 µM, Giemsa smears; for parasite growth (Nluc bioluminescence) followed 72 h after 4 h treatment: schizonts treated 4 h: M-833 2 µM, ML10 30 nM, E64 10 µM, heparin 100 µg/mL, then washed off
Description: To measure egress, invasion, and follow-up recovery in the presence of different compounds, we adapted the method developed in[11], using Hyp1-Nluc parasites. A full description is in the Supplementary Information. […]
and compound 4. Note that M-833 was first purchased from MolPort (MolPort -002-267-916) then made in-house at WEHI: the differences observed in EC50s across experiments are attributed to the different batches of M -833. […]
Egress, invasion & recovery assay. To measure egress, invasion and follow up recovery in the presence of different compounds, we adapted the method developed in6, using Hyp1-Nluc parasites7. These parasites episomally express the exported PEXEL protein Hyp1 (PF3D7_0113300) tagged with a NanoLuc luciferase (NLuc) and were selected with 2.5 nM WR99210 (Jacobus). Highly synchronised schizonts were obtained using ML10 (LifeArc) and sorbitol synchronisation, and Percoll-purified (the culture was gently layered over 67% Percoll (Cytiva) in RPMI, and centrifuged for 15 min at 1500 g and the schizont layer was collected and washed). In a 96-well plate, […]
cultures were set up in 4 replicates (3 replicates for the Nluc readout, and one replicate for Giemsa smears) with 1-2% parasitemia, 2% haematocrit, with the following […]
100 μg/ml heparin (Sigma) and 10 μM E64 (Sigma). The schizonts were allowed to egress and invade for 4 h at 37°C. A “background” plate without treatment was left in the fridge during this time. After 4 h, cultures were sorbitol -treated to eliminate schizonts that have not egressed. Smears were made every day for the following 3 days, and 5 μL of the resuspended cultures were taken to measure Nluc activity (to assess parasite’s presence). To measure Nluc activity, 5 μL culture were added to 45 μL NanoGlo reagent (1x Promega lysis buffer and NanoGlo reagent; Promega). The average luminescence of the background cultures was subtracted to the average luminescence of each sample. […]
The viable parasite value was then expressed in log units and parasite reduction ratio was calculated as a decrease in […]

Question: Which “START densitometry, Norm 0 mM [EXP2]” value (PfSTART1; 3D7) does the source give for `N[C@H]1C(O)O[C@H](CO)[C@@H](O)[C@@H]1O` (stereo partly drawn) [GlcN, glucosamine] here?
Answer: Its value is 1.02E+02 and 1.14E+02 and 9.72E+01.

Question: What about the “START densitometry, norm 0/EXP2” value (PfSTART1; 3D7 parasites) of the same molecule?
Answer: Its value is 1.29E+02 and 9.38E+01 and 8.16E+01.

Question: And the “START densitometry, norm 0/HSP” value (PfSTART1; 3D7 parasites)?
Answer: The value was 1.32E+02 and 1.01E+02 and 9.77E+01.

Question: What about the “START densitometry, norm 3D7, EXP2” value (PfSTART1; 3D7 parasites) of the same molecule?
Answer: The value was 1.29E+02 and 9.38E+01 and 8.16E+01.

Question: What about the “START densitometry, norm 3D7, HSP70” value (PfSTART1; 3D7 parasites) of the same molecule?
Answer: Its value is 1.32E+02 and 1.01E+02 and 9.77E+01.

Question: What about the “START densitometry, norm 0/EXP2” value (PfSTART1; CR-N309K parasites) of the same molecule?
Answer: The value was 1.17E+01 and 2.98E+01 and 1.90E+01.

Question: What about the “START densitometry, norm 0/HSP” value (PfSTART1; CR-N309K parasites) of the same molecule?
Answer: The value was 2.14E+01 and 2.66E+01 and 2.27E+01.

Question: What about the “START densitometry, norm 3D7, EXP2” value (PfSTART1; CR-N309K parasites) of the same molecule?
Answer: Its value is 1.40E+01 and 3.50E+01 and 1.71E+01.

Question: What about the “START densitometry, norm 3D7, HSP70” value (PfSTART1; CR-N309K parasites) of the same molecule?
Answer: Its value is 1.73E+01 and 1.93E+01 and 2.63E+01.

Question: What about the PfSTART1 knockdown (PfSTART1; CR-N309K schizonts) of the same molecule?
Answer: The PfSTART1 knockdown was 81%.

Question: And the “START densitometry, norm 0/EXP2” value (PfSTART1; CR-N330K parasites)?
Answer: Its value is 1.02E+01 and 3.10E+01 and 7.15E+00.

Question: And the “START densitometry, norm 0/HSP” value (PfSTART1; CR-N330K parasites)?
Answer: Its value is 2.77E+01 and 2.71E+01 and 1.13E+01.

Question: What about the “START densitometry, norm 3D7, EXP2” value (PfSTART1; CR-N330K parasites) of the same molecule?
Answer: Its value is 1.13E+01 and 3.35E+01 and 1.19E+01.

Question: What about the “START densitometry, norm 3D7, HSP70” value (PfSTART1; CR-N330K parasites) of the same molecule?
Answer: Its value is 2.31E+01 and 2.22E+01 and 2.51E+01.

Question: And the PfSTART1 knockdown (PfSTART1; CR-N330K schizonts)?
Answer: Its PfSTART1 knockdown is 84%.

Question: What about the “START densitometry, norm 0/EXP2” value (PfSTART1; CR-WT parasites) of the same molecule?
Answer: The value was 2.42E+01 and 2.14E+01 and 2.95E+01.

Question: What about the “START densitometry, norm 0/HSP” value (PfSTART1; CR-WT parasites) of the same molecule?
Answer: The value was 2.70E+01 and 2.58E+01 and 2.79E+01.

Question: And the “START densitometry, norm 3D7, EXP2” value (PfSTART1; CR-WT parasites)?
Answer: Its value is 3.52E+01 and 2.52E+01 and 2.73E+01.

Question: And the “START densitometry, norm 3D7, HSP70” value (PfSTART1; CR-WT parasites)?
Answer: Its value is 2.33E+01 and 2.02E+01 and 4.40E+01.

Question: What about the PfSTART1 knockdown (PfSTART1; CR-WT schizonts) of the same molecule?
Answer: Its PfSTART1 knockdown is 75%.

Question: What about the PfSTART1 knockdown (PfSTART1; SLI-N309K schizonts) of the same molecule?
Answer: Its PfSTART1 knockdown is 43%.

Question: And the “START densitometry, Norm 0 mM [EXP2]” value (PfSTART1; SLI-N309K)?
Answer: The value was 5.39E+01 and 7.05E+01 and 4.74E+01.

Question: And the PfSTART1 knockdown (PfSTART1; SLI-N330K schizonts)?
Answer: The PfSTART1 knockdown was 70%.

Question: And the “START densitometry, Norm 0 mM [EXP2]” value (PfSTART1; SLI-N330K)?
Answer: Its value is 2.99E+01 and 2.84E+01 and 3.23E+01.

Question: What about the PfSTART1 knockdown (PfSTART1; SLI-WT schizonts) of the same molecule?
Answer: Its PfSTART1 knockdown is 60%.

Question: What about the “START densitometry, Norm 0 mM [EXP2]” value (PfSTART1; SLI-WT) of the same molecule?
Answer: Its value is 5.15E+01 and 2.89E+01 and 3.95E+01.

Question: For `Cc1cc(Cl)c(S(=O)(=O)N2CCCC2)cc1OCC(=O)NC1CCCCC1` [M-833], which “parasite morphology at 72 h after 4 h treatment” value (Hyp1-Nluc parasites) is on record?
Answer: Its value is “resembled the dysmorphic ring-stage parasites”.

Question: What about the “parasite growth (Nluc bioluminescence) followed 72 h after 4 h treatment” value (Hyp1-Nluc parasites) of the same molecule?
Answer: The value was “virtually no recovery after three days”.

Question: Which results are given for `CC(C)(Nc1ccc(Cl)c(S(=O)(=O)N2CCOCC2)c1)C(=O)Nc1ccc(F)c(Cl)c1` [W-991]?
Answer: parasite morphology at 72 h after 4 h treatment (Hyp1-Nluc parasites): resembled the dysmorphic ring-stage parasites; parasite growth (Nluc bioluminescence) followed 72 h after 4 h treatment (Hyp1-Nluc parasites): virtually no recovery after three days
